Earlier results, collected in patent US6696551B1, “225Ac-HEHA and related compounds, methods of synthesis and methods of use” (The United States of America as represented by the …, priority 1999, dated 2004).

## O=C(O)CN(CC(=O)O)[C@H](Cc1ccc([N+](=O)[O-])cc1)CN(CC(=O)O)[C@H]1CCCC[C@@H]1N(CC(=O)O)CC(=O)O (relative stereo) [CHXA″-DTPA, N[(R)-2-amino-3-(4-nitrophenyl)propyl]-trans-(S,S)-cyclohexane-1,2-diamine-N,N,N′,N″,N″-pentaacetic acid]
^225Ac chelate, mice
  maximum tolerated dose (MTD): approximately 100 kBq
Higher doses, within eight days
  mouse mortality: 100%
